Experiments:
[1] = system: C. elegans host defense pathway genes; test: nanoString expression of 115 immune- and stress-responsive genes; details: 100 μM LK molecules, 16 h
Description: The ratio of MIC to EC was determined for each of the 69 compounds.
Analysis of the expression of 115 immune- and stress-responsive genes using nanoString technology. Download Table S1, XLSX file, 0.02 MB.
For nanoString-based (nanoString Technologies, Seattle, WA) experiments, 2,000 wild-type, young adult worms were exposed to 100 μM LK molecules or DMSO control in S Basal medium in 6-well plates for 16 h. RNA purification and gene expression analysis were performed according to nanoString guidelines. Two biological replicates were tested for each condition.

[2] = system: glp-4(bn2) worms exposed to methicillin-resistant S. aureus strain MRSA131; test: S. aureus infection assay (liquid); type: in vivo, Caenorhabditis elegans; details: glp-4(bn2) worms, 96 h; ± 95% confidence interval
Description: Enterococcus faecalis and Staphylococcus aureus are Gram-positive bacterial species frequently responsible for nosocomial infections ([24], [25]). These bacterial species readily infect C. elegans and liquid-based pathogenesis models have been developed for each ([26][–][28]). Sterile, young adult glp-4(bn2) worms were incubated with either E. faecalis or S. aureus and various concentrations of the five compounds. […] Importantly, P. aeruginosa, E. faecalis, and S. aureus use very different mechanisms to kill C. elegans (pyoverdine-mediated mitochondrial damage, gelatinase-mediated damage to the colonized intestine, and multi-toxin-mediated intestinal effacement and damage, respectively) ([29][–][33]). The ability of these compounds to rescue against multiple pathogens that utilize a diverse set of virulence factors and mechanisms of pathogenesis further supports the idea that at least a portion of these compounds’ activity is mediated by stimulating innate immunity.
FIG 2 A subset of LK molecules rescue against E. faecalis and S. aureus. […] Compounds were serially diluted 2-fold, and young adult glp-4(bn2) worms were incubated with the pathogen for 80 h (E. faecalis) or 96 h (S. aureus). The concentrations shown are based on the mean value for at least three replicates. (B and C) Percentages of dead C. elegans after exposure to E. faecalis (B) or S. aureus (C). A representative biological replicate is shown. Each condition included at least six wells per replicate, each well contained approximately 20 worms. Three biological replicates were performed. *, P < 0.05; **, P < 0.01; ***, P < 0.001. P values were calculated using Student’s t test. Error bars represent the standard error of the mean.
The S. aureus killing assay was performed as previously described with some changes ([26]). A single colony was used to inoculate a 5-ml aerobic culture of TSB. The following day, 100 µl of this culture was used to inoculate a second 10 ml of TSB culture wrapped with parafilm. Then, 384-well plates were made containing 10% TSB, and S. aureus from the second culture was resuspended in S Basal medium to a final OD of 0.04. Compounds were then serially diluted in a DMSO-S Basal solution to achieve the desired concentration in the wells with a 1% DMSO final concentration for all compounds. After 5 days, the worms were transferred to new plates using a 0.05% Tween solution to prevent S. aureus biofilm background fluorescence from obscuring dead worms. Subsequent washing, staining, imaging, and image analysis were performed identically to Pseudomonas liquid killing. EC values were defined as the minimum concentration that provided statistically significant rescue. At least three biological replicates were performed.

## CCN(CC)/N=N/c1ccc(C(=O)O)cc1 [LK35]
[1]
  B0024.4 expression, induction: 0.69 fold
  C02B4.2 nhr-17 expression, induction: 4.68 fold
  C06B3.7 expression, induction: 4.95 fold
  C07G3.2 irg-1 expression, induction: 2.81 fold
  C12C8.1 hsp-70 expression, induction: 9.31 fold
  C15F1.7 sod-1 expression, induction: 1.69 fold
  C29F7.2 expression, induction: 7.54 fold
  C31A11.5 oac-6 expression, induction: 4.61 fold
  C32D5.12 expression, induction: 0.39 fold
  C32H11.1 expression, induction: 0.93 fold
  C32H11.3 expression, induction: 2.10 fold
  C34G6.4 pgp-2 expression, induction: 8.04 fold
  C37C3.10 expression, induction: 68.75 fold
  C37H5.8 hsp-6 expression, induction: 4.54 fold
  C49G7.5 irg-2 expression, induction: 14.15 fold
  F08F8.5 numr-1 expression, induction: 26.12 fold
  F08H9.4 expression, induction: 14.14 fold
  F14F9.3 expression, induction: 17.12 fold
  F22B5.4 expression, induction: 0.69 fold
  F22H10.2 expression, induction: 2.36 fold
  F26A3.4 expression, induction: 1.28 fold
  F35E8.11 cdr-1 expression, induction: 87.64 fold
  F35G2.4 phy-2 expression, induction: 1.60 fold
  F37B12.2 gcs-1 expression, induction: 12.12 fold
  F43E2.8 hsp-4 expression, induction: 31.03 fold
  F44E5.5 expression, induction: 8.59 fold
  F49F1.6 expression, induction: 2.32 fold
  F49F1.7 expression, induction: 2.34 fold
  F49H6.13 expression, induction: 18.14 fold
  F54B8.4 expression, induction: 4.73 fold
  F55G11.2 expression, induction: 2.21 fold
  F59A7.1 clec-206 expression, induction: 9.10 fold
  F59B10.4 expression, induction: 4.48 fold
  H12D21.1 nspa-1 expression, induction: 36.00 fold
  H23N18.1 ugt-13 expression, induction: 10.66 fold
  H23N18.3 ugt-8 expression, induction: 9.55 fold
  K05B2.4 expression, induction: 14.78 fold
  K08F4.7 gst-4 expression, induction: 12.53 fold
  K09A9.1 nipi-3 expression, induction: 4.14 fold
  K10D11.2 expression, induction: 11.43 fold
  K10G4.3 expression, induction: 5.63 fold
  R03D7.6 gst-5 expression, induction: 144.12 fold
  R08H2.1 dhs-23 expression, induction: 121.17 fold
  R10E8.3 expression, induction: 5.61 fold
  T19D12.3 expression, induction: 88.57 fold
  T19H12.1 ugt-9 expression, induction: 6.78 fold
  T21E8.1 pgp-6 expression, induction: 2.39 fold
  T22B7.3 expression, induction: 7.07 fold
  T24C4.4 expression, induction: 4.80 fold
  T24E12.5 expression, induction: 34.94 fold
  T27E4.3 hsp-16.48 expression, induction: 10.63 fold
  T27E4.8 hsp-16.1 expression, induction: 10.52 fold
  T27F6.8 expression, induction: 3.60 fold
  T28C12.4 expression, induction: 9.37 fold
  W02D9.10 expression, induction: 7.18 fold
  Y22D7AL.5 hsp-60 expression, induction: 2.52 fold
  Y38E10A.15 nspe-7 expression, induction: 3.39 fold
  Y46H3A.2 hsp-16.41 expression, induction: 6.06 fold
  Y46H3A.3 hsp-16.2 expression, induction: 6.32 fold
  Y56A3A.33 expression, induction: 3.94 fold
  Y58A7A.5 expression, induction: 9.18 fold
  ZC376.7 atfs-1 expression, induction: 3.43 fold
  ZC443.6 ugt-16 expression, induction: 25.67 fold
  ZK697.6 gst-21 expression, induction: 2.35 fold
[2]
  S. aureus EC: > 64 µM

Source: publication PMC7845594, “Novel Immune Modulators Enhance Caenorhabditis elegans Resistance to Multiple Pathogens” (mSphere, 2021)
